{
  "source": "patent US20220031596A1",
  "about": "“ANTI-AGING AGENT AND ANTI-AGING METHOD” (priority 2018, published 2022)",
  "type_in_all_cases": "in vivo, human",
  "key": {"[1]": {"tested_on": "calcitonin concentration in the plasma", "assay": "Evaluation of calcitonin secretion promoting effect (plasma calcitonin, 24-week oral ingestion)", "conditions": "for calcitonin concentration in the plasma, 0 weeks (before ingestion) / calcitonin concentration in the plasma, 24 weeks (after ingestion) / calcitonin concentration in the plasma, Change rate (24 weeks - 0 weeks): High Dose Group (200 mg/daily, oral), mean±SD; for calcitonin concentration in the plasma, 0 weeks (before ingestion): baseline", "description": "In order to confirm a change in the calcitonin quantity before and after ingestion of the nicotinamide mononucleotide, a test was conducted on healthy males and females aged 50 to 70 years.\nAs a sample of Working Example 12, a capsule formulation containing the nicotinamide mononucleotide and starch (200 mg of the nicotinamide mononucleotide in 4 capsules) (manufactured by SHINKOWA PHARMACEUTICAL Co., Ltd.) was used.\n(§1) Each group consisting of five healthy males and females aged 50 to 70 years in an unbiased age group ingested the above high dose capsule formulation once a day by 4 capsules for 24 weeks (total 10 subjects, 200 mg/daily ingestion). In order to conduct appropriate evaluations, those who had been regularly using medical products for chronic diseases, those who had been consuming healthy foods that may affect clinical research, and those who were currently participating in other clinical researches or clinical trials or had participated in other clinical researches or clinical trials within the last three months were excluded from the subject for the evaluation. The capsule formulations were ingested at 10 am (between meals and fasting state) together with water or lukewarm water (oral administration).\nMeasurement of the calcitonin quantity in the plasma was conducted by requesting the measurement to an external public organization according to a usual method. FIGS. 24a to 24c indicate transitions of the calcitonin concentration (pg/ml) in the plasma for 24 weeks. FIG. 24a represents the transitions of the whole subjects; FIG. 24b represents the transitions of the male subjects; FIG. 24c represents the transitions of the female subjects. Further, FIGS. 25a to 25c indicate change rates (%) of the blood calcitonin concentration up to 24 weeks when the nicotinamide mononucleotide was orally administered to the subjects for 24 weeks. FIG. 25a represents the change rates of the whole subjects; FIG. 25b represents the change rates of the male subjects; FIG. 25c represents the change rates of the female subjects. Further, Table 11 indicates the numerical values of the calcitonin concentration (pg/ml) in the plasma before the ingestion of the nicotinamide mononucleotide (0 weeks) and after the ingestion of the nicotinamide mononucleotide (24 weeks). Note that the numerical values represent mean values±standard deviation."}, "[2]": {"tested_on": "thyroid-stimulating hormone concentration in the plasma", "assay": "Evaluation of thyroid-stimulating hormone secretion promoting effect (plasma TSH, 24-week oral ingestion)", "conditions": "for thyroid-stimulating hormone concentration in the plasma, 0 weeks (before ingestion) / thyroid-stimulating hormone concentration in the plasma, 24 weeks (after ingestion) / thyroid-stimulating hormone concentration in the plasma, Change rate (24 weeks - 0 weeks): High Dose Group (200 mg/daily, oral), mean±SD; for thyroid-stimulating hormone concentration in the plasma, 0 weeks (before ingestion): baseline", "description": "In order to confirm a change in the thyroid-stimulating hormone quantity before and after ingestion of the nicotinamide mononucleotide, a test was conducted on healthy males and females aged 50 to 70 years.\nAs a sample of Working Example 4, a capsule formulation containing the nicotinamide mononucleotide and starch (200 mg of the nicotinamide mononucleotide in 4 capsules) (manufactured by SHINKOWA PHARMACEUTICAL Co., Ltd.) was used.\nas §1, with “above” for “above high dose”\nMeasurement of the thyroid-stimulating hormone quantity in the plasma was conducted by requesting the measurement to an external public organization according to a usual method. FIGS. 8a to 8c indicate transitions of the thyroid-stimulating hormone concentration (μU/ml) in the plasma for 24 weeks. FIG. 8a represents the transitions of the whole subjects; FIG. 8b represents the transitions of the male subjects; FIG. 8c represents the transitions of the female subjects. Further, FIGS. 9a to 9c indicate change rates (%) of the blood thyroid-stimulating hormone concentration up to 24 weeks when the nicotinamide mononucleotide was orally administered to the subjects for 24 weeks. FIG. 9a represents the change rates of the whole subjects; FIG. 9b represents the change rates of the male subjects; FIG. 9c represents the change rates of the female subjects. Further, Table 4 indicates the numerical values of the thyroid-stimulating hormone concentration (μU/ml) in the plasma before the ingestion of the nicotinamide mononucleotide (0 weeks) and after the ingestion of the nicotinamide mononucleotide (24 weeks). Note that the numerical values represent mean values±standard deviation."}, "[3]": {"tested_on": "adrenocorticotropic hormone concentration in the plasma", "assay": "Evaluation of adrenocorticotropic hormone secretion promoting effect (plasma ACTH, 24-week oral ingestion)", "conditions": "for adrenocorticotropic hormone concentration in the plasma, 0 weeks (before ingestion) / adrenocorticotropic hormone concentration in the plasma, 24 weeks (after ingestion) / adrenocorticotropic hormone concentration in the plasma, Change rate (24 weeks - 0 weeks): High Dose Group (200 mg/daily, oral), mean±SD; for adrenocorticotropic hormone concentration in the plasma, 0 weeks (before ingestion): baseline", "description": "In order to confirm a change in the adrenocorticotropic hormone quantity before and after ingestion of the nicotinamide mononucleotide, a test was conducted on healthy males and females aged 50 to 70 years.\nAs a sample of Working Example 10, a capsule formulation containing the nicotinamide mononucleotide and starch (200 mg of the nicotinamide mononucleotide in 4 capsules) (manufactured by SHINKOWA PHARMACEUTICAL Co., Ltd.) was used.\nas §1\nMeasurement of the adrenocorticotropic hormone quantity in the plasma was conducted by requesting the measurement to an external public organization according to a usual method. FIGS. 20a to 20c indicate transitions of the adrenocorticotropic hormone concentration (pg/ml) in the plasma for 24 weeks. FIG. 20a represents the transitions of the whole subjects; FIG. 20b represents the transitions of the male subjects; FIG. 20c represents the transitions of the female subjects. Further, FIGS. 21a to 21c indicate change rates (%) of the blood adrenocorticotropic hormone concentration up to 24 weeks when the nicotinamide mononucleotide was orally administered to the subjects for 24 weeks. FIG. 21a represents the change rates of the whole subjects; FIG. 21b represents the change rates of the male subjects; FIG. 21c represents the change rates of the female subjects. Further, Table 10 indicates the numerical values of the adrenocorticotropic hormone concentration (pg/ml) in the plasma before the ingestion of the nicotinamide mononucleotide (0 weeks) and after the ingestion of the nicotinamide mononucleotide (24 weeks). Note that the numerical values represent mean values±standard deviation."}},
  "data": [
    {"smiles": "NC(=O)c1ccc[n+]([C@@H]2O[C@H](COP(=O)([O-])O)[C@@H](O)[C@H]2O)c1", "note": "[nicotinamide mononucleotide]", "values": [
      {"measurement": "calcitonin concentration in the plasma, 0 weeks (before ingestion)", "setting": "[1]; Female", "result": "0.60 ± 0.10", "unit": "pg/mL"},
      {"measurement": "calcitonin concentration in the plasma, 24 weeks (after ingestion)", "setting": "[1]; Female", "result": "0.71 ± 0.20", "unit": "pg/mL"},
      {"measurement": "calcitonin concentration in the plasma, Change rate (24 weeks - 0 weeks)", "setting": "[1]; Female", "result": "0.11 ± 0.10", "unit": "pg/mL"},
      {"measurement": "calcitonin concentration in the plasma, 0 weeks (before ingestion)", "setting": "[1]; Male", "result": "2.35 ± 1.97", "unit": "pg/mL"},
      {"measurement": "calcitonin concentration in the plasma, 24 weeks (after ingestion)", "setting": "[1]; Male", "result": "2.44 ± 2.21", "unit": "pg/mL"},
      {"measurement": "calcitonin concentration in the plasma, Change rate (24 weeks - 0 weeks)", "setting": "[1]; Male", "result": "0.09 ± 0.37", "unit": "pg/mL"},
      {"measurement": "calcitonin concentration in the plasma, 0 weeks (before ingestion)", "setting": "[1]; Whole Subjects", "result": "1.48 ± 1.61", "unit": "pg/mL"},
      {"measurement": "calcitonin concentration in the plasma, 24 weeks (after ingestion)", "setting": "[1]; Whole Subjects", "result": "1.58 ± 1.74", "unit": "pg/mL"},
      {"measurement": "calcitonin concentration in the plasma, Change rate (24 weeks - 0 weeks)", "setting": "[1]; Whole Subjects", "result": "0.10 ± 0.25", "unit": "pg/mL"},
      {"measurement": "calcitonin concentrations in the plasma, effect of ingestion (in words)", "setting": "[1]; oral, 200 mg/daily, 24 weeks, FIGS. 24a-24c, 25a-25c", "result": "increased"},
      {"measurement": "thyroid-stimulating hormone concentration in the plasma, 0 weeks (before ingestion)", "setting": "[2]; Female", "result": "2.56 ± 1.27", "unit": "μU/ml"},
      {"measurement": "thyroid-stimulating hormone concentration in the plasma, 24 weeks (after ingestion)", "setting": "[2]; Female", "result": "2.61 ± 1.15", "unit": "μU/ml"},
      {"measurement": "thyroid-stimulating hormone concentration in the plasma, Change rate (24 weeks - 0 weeks)", "setting": "[2]; Female", "result": "0.05 ± 0.98", "unit": "μU/ml"},
      {"measurement": "thyroid-stimulating hormone concentration in the plasma, 0 weeks (before ingestion)", "setting": "[2]; Male", "result": "2.57 ± 1.65", "unit": "μU/ml"},
      {"measurement": "thyroid-stimulating hormone concentration in the plasma, 24 weeks (after ingestion)", "setting": "[2]; Male", "result": "2.97 ± 1.52", "unit": "μU/ml"},
      {"measurement": "thyroid-stimulating hormone concentration in the plasma, Change rate (24 weeks - 0 weeks)", "setting": "[2]; Male", "result": "0.40 ± 1.38", "unit": "μU/ml"},
      {"measurement": "thyroid-stimulating hormone concentration in the plasma, 0 weeks (before ingestion)", "setting": "[2]; Whole Subjects", "result": "2.57 ± 1.39", "unit": "μU/ml"},
      {"measurement": "thyroid-stimulating hormone concentration in the plasma, 24 weeks (after ingestion)", "setting": "[2]; Whole Subjects", "result": "2.79 ± 1.29", "unit": "μU/ml"},
      {"measurement": "thyroid-stimulating hormone concentration in the plasma, Change rate (24 weeks - 0 weeks)", "setting": "[2]; Whole Subjects", "result": "0.23 ± 1.14", "unit": "μU/ml"},
      {"measurement": "thyroid-stimulating hormone concentrations in the plasma, effect of ingestion (in words)", "setting": "[2]; oral, 200 mg/daily, 24 weeks, FIGS. 8a-8c, 9a-9c", "result": "increased"},
      {"measurement": "adrenocorticotropic hormone concentration in the plasma, 0 weeks (before ingestion)", "setting": "[3]; Female", "result": "17.5 ± 7.0", "unit": "pg/mL"},
      {"measurement": "adrenocorticotropic hormone concentration in the plasma, 24 weeks (after ingestion)", "setting": "[3]; Female", "result": "21.9 ± 14.2", "unit": "pg/mL"},
      {"measurement": "adrenocorticotropic hormone concentration in the plasma, Change rate (24 weeks - 0 weeks)", "setting": "[3]; Female", "result": "4.4 ± 15.3", "unit": "pg/mL"},
      {"measurement": "adrenocorticotropic hormone concentration in the plasma, 0 weeks (before ingestion)", "setting": "[3]; Male", "result": "24.4 ± 10.0", "unit": "pg/mL"},
      {"measurement": "adrenocorticotropic hormone concentration in the plasma, 24 weeks (after ingestion)", "setting": "[3]; Male", "result": "35.7 ± 10.2", "unit": "pg/mL"},
      {"measurement": "adrenocorticotropic hormone concentration in the plasma, Change rate (24 weeks - 0 weeks)", "setting": "[3]; Male", "result": "11.3 ± 4.6", "unit": "pg/mL"},
      {"measurement": "adrenocorticotropic hormone concentration in the plasma, 0 weeks (before ingestion)", "setting": "[3]; Whole Subjects", "result": "20.9 ± 8.9", "unit": "pg/mL"},
      {"measurement": "adrenocorticotropic hormone concentration in the plasma, 24 weeks (after ingestion)", "setting": "[3]; Whole Subjects", "result": "28.8 ± 13.7", "unit": "pg/mL"},
      {"measurement": "adrenocorticotropic hormone concentration in the plasma, Change rate (24 weeks - 0 weeks)", "setting": "[3]; Whole Subjects", "result": "7.8 ± 11.2", "unit": "pg/mL"},
      {"measurement": "adrenocorticotropic hormone concentrations in the plasma, effect of ingestion (in words)", "setting": "[3]; oral, 200 mg/daily, 24 weeks, FIGS. 20a-20c, 21a-21c", "result": "increased"}
    ]}
  ]
}
